Experimental data: US9458508B2, “Methods and compositions for the diagnosis and treatment of cancer resistant to anaplastic lymphoma kinase (ALK) kinase inhibitors” (St. Jude Children's Research Hospital, priority 2010, dated 2016)

Test system: parental BaF3 cells
Test: cells
Conditions: Mus musculus, BaF3, 72 h
Procedure: Parental BaF3 cells (“BaF3”) were also tested as a normal, non-ALK-dependent cell control.

## C[C@@H](Oc1cc(-c2cnn(C3CCNCC3)c2)cnc1N)c1c(Cl)ccc(F)c1Cl [PF-02341066]
  IC50: 1460 nM
